Values of other authors, collected in patent US8163703B2, “Hepatitis C therapies” (BioCryst Pharmaceuticals, Inc., priority 2005, dated 2012).

Tested on: HCV
Conditions: ribavirin alone

NC(=O)c1ncn([C@@H]2O[C@H](CO)[C@@H](O)[C@H]2O)n1 [Ribavirin, 1-β-D-ribofuranosyl-1-1,2,4-triazole-3-carboxamide]
patients in whom serum amino transferase levels are reduced to normal: 40%
